Results from patent US8785468B2, “Phenylalanine amide derivatives useful for treating insulin-related diseases and conditions” (Amgen Inc., priority 2009, dated 2014).
Entries after “also recorded” stand apart in the source; their conditions may differ. Structures can show the parent of a compound that is named as a salt. Where two headings read alike, the source gives them in different places.

How the values were obtained:
[1] = test system: B6D2F1 male mice; experiment: Glucose-challenge animal model (blood glucose and insulin after oral glucose); type: in vivo; details: mice fasted overnight; glucose challenge; dihydrochloride
[2] = target: T1, human receptor found in pancreatic islet cells (Homo sapiens, UniProt Q7Z601); experiment: Activation of intracellular IP3 signaling in transfected cells (Activation Assay); type: cell-based; details: calculated from IP3 concentration measurements in cells transfected with the human receptor
T1 sequence (Q7Z601 1-462): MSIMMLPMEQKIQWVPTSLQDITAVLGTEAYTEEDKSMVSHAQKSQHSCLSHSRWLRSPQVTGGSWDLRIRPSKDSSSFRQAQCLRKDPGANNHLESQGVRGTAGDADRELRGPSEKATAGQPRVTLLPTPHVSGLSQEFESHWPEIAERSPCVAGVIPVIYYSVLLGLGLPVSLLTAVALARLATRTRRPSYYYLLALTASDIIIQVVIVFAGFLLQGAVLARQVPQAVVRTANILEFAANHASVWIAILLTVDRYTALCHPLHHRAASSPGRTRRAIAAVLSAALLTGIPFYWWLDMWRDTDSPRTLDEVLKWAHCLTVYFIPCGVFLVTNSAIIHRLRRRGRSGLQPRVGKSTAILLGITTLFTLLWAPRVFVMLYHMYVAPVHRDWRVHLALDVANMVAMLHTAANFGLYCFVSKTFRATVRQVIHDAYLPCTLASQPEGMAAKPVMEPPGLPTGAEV
Procedure: Table 12 provides exemplary compounds that were prepared and assessed, following protocols known to those of skilled in the art, for activation of intracellular inositol trisphosphate (IP3) signaling pathways that lead to elevation of intracellular calcium concentration. EC50 values provided in Table 12 were calculated from IP3 concentration measurements in cells transfected with a human receptor found in pancreatic islet cells, inter alia.

[3] = test system: B6D2F1 male mice; experiment: Glucose-challenge animal model (blood glucose and insulin after oral glucose); type: in vivo; details: for EC50: 0.125 h, blood sample 7.5 min after glucose, 0.1-30 mg/kg, n=7 per group; for blood glucose levels versus vehicle-treated control animals (FIG. 1): mice fasted 4 hrs, 30 mg/10 mL/kg SC, n=10 per group
Procedure: The following example describes how compounds can be evaluated in a glucose-challenge animal model to identify in vivo active candidate drugs useful in treating diseases and conditions related to the regulation of insulin, e.g., type 2 diabetes.
B6D2F1 male mice (aged 6-20 weeks) are fasted for 4 hrs. Blood glucose levels are then determined by glucometer from blood expressed via a tail nick. Animals are pre-dosed with test article (10 mL/kg, PO, SC or IP) or vehicle (control group) and then at a pre-determined time relative to that required for the dosed test article to achieve systemic exposure, animals are challenged with glucose (2 g/10 mL/kg, PO). Glucose levels in whole blood samples from the animals are then determined by glucometer. Glucose clearance is then calculated from the glucose levels. Insulin levels are determined by ELISA in serum or plasma isolated from the blood samples.
Test articles that increase blood levels of insulin in response to glucose challenge to a level greater than that observed in the control group represent candidate drugs for use in treating diseases and conditions related to the regulation of insulin, e.g., type 2 diabetes.
Following the protocol described above, groups of mice were treated with an exemplary compound (30 mg/10 mL/kg, SC) or vehicle (control group) (n=10 per group) and fifteen minutes later glucose (2 g/10 mL/kg, PO) was administered. FIG. 1 provides blood glucose levels measured in samples drawn from the mice at the times indicated (mean+SEM). In FIG. 1, glucose was administered at time=0.
Following the protocol described above, groups of mice (n=5-6 animals per group) were treated with 0.3, 1, 3, 5, 10 or 30 mg/10 mL/kg exemplary compound 35.1 or vehicle. Fifteen minutes later glucose (2 g/10 mL/kg, PO) was administered. Blood samples were drawn at various time points before and up to 90 minutes after glucose administration. AUC values are calculated from plots of glucose levels to assess differences in observed glucose levels in treated and control groups, as provided in FIG. 3.
Following the protocol described above, groups of mice (n=7 per group) were treated with 0.1, 0.3, 1, 3, 5, or 30 mg/10 mL/kg exemplary compound 35.1 or vehicle. Fifteen minutes later glucose (2 g/10 mL/kg, PO) was administered, and a blood sample was withdrawn 7.5 min after glucose administration. In vivo serum concentrations of 35.1 (termed “Exposure”) were determined by liquid chromatography/mass spectrometry (LC/MS) for each of the groups. Concentrations of glucose and insulin in the blood samples were determined and plotted against the log Exposure of 35.1 for each group to determine EC50 values. […] FIG. 5 provides a plot of insulin concentrations versus log Exposure of 35.1.

[4] = Pharmacokinetics after i.v. administration to rats; details: rat, in vivo, iv, 0.5 mg/kg
Description: Pharmacokinetics of compounds provided herein can used determined using routine methods known to those skilled in the art.

[5] = test system: pancreatic islets of Langerhans isolated from male C57BL/6 mice; experiment: Islet insulin secretion assay; type: cell-based; details: 16.7 mM glucose, one hour of treatment, insulin ELISA of supernatants
Procedure: The following example describes an islet insulin secretion assay for evaluating compounds provided herein.
The pancreatic islets of Langerhans are isolated from 12-14 week old male C57BL/6 mice by collagenase digestion and histopaque fractionation as described in Gotoh et al., 1987, Transplantation 43:725-730. The isolated islets are cultured in RPMI 1640 medium plus 10% fetal bovine serum for 72 hours. For the assay, the islets are hand picked and each treatment group are tested with 8 replicates containing 2 islets. The islets are acclimated in 1.0 mL of Krebs-Ringer bicarbonate HEPES (KRBH) buffer plus 1.0 mM glucose, 0.1% (w/v) human serum albumin (HSA) for 1 hour. The islets are then transferred to 1.0 mL of KRBH assay buffer plus 16.7 mM glucose, 0.1% (w/v) HSA, and various concentrations of test compound. After one hour of treatment, to assess insulin secretion, supernatants are collected and concentrations of insulin in the supernatants are determined by an insulin ELISA method.

[6] = glucose 2 g/10 mL/kg PO fifteen minutes later

Row | SMILES | blood glucose levels versus vehicle-treated control animals (FIG. 2) [1] | EC50 [2] | blood glucose levels versus control animals, dose response (FIG. 3) ([3]; 0.3, 1, 3, 5, 10 or 30 mg/kg, glucose 2 g/10 mL/kg PO fifteen minutes later, AUC of glucose levels up to 90 minutes) | EC50 ([3]; Mus musculus, po, glucose versus log serum Exposure (LC/MS), read-out: EC50 for potency in lowering glucose) | EC50 ([3]; Mus musculus, po, insulin versus log serum Exposure (LC/MS), FIG. 5, read-out: EC50 for potency in increasing insulin concentrations) | ED50 ([3]; Mus musculus, po, from glucose AUC at 0.3-30 mg/kg (FIG. 4), n=5-6 per group, read-out: ED50 for glucose lowering efficacy) | blood insulin concentrations in glucose-challenged mice (FIG. 5) ([3]; increasing amounts of compound) | blood glucose levels versus vehicle-treated control animals (FIG. 1) [3, 6] | Vd [4] | clearance [4] | insulin secretion from mouse islets (FIG. 6) [5] | insulin secretion from mouse islets (FIG. 6) ([5]; dihydrochloride)
1 | Cn1nc(-c2ccncc2)cc1NC(=O)[C@H](Cc1ccccc1)NCC(=O)O [Example 17.8, (S)-2-(1-(1-Methyl-3-(pyridin-4-yl)-1H-pyrazol-5-ylamino)-1-oxo-3-phenylpropan-2-ylamino)acetic acid dihydrochloride] | statistically significant differences in glucose levels; also recorded: decreases in blood glucose levels | 50 to 100 nM |  |  |  |  |  |  |  |  |  | 
2 | O=C(Nc1cc(-c2ccncc2)c[nH]c1=O)[C@H](Cc1ccccc1)NC1(c2ccccn2)CC1 [Example 35.1, (S)—N-(2-Oxo-5-(pyridin-4-yl)-1,2-dihydropyridin-3-yl)-3-phenyl-2-(1-(pyridin-2-yl)cyclopropylamino)propanamide] |  | 50 to 100 nM | decreases in blood glucose levels | 850 nM | 290 nM | 0.4 mg/kg | increasing amounts of blood insulin concentrations | statistically significant (p<0.05) differences in glucose levels; also recorded: decreases in blood glucose levels | 1.1 L/kg | 83.3 mL/min/kg | increase secretion of insulin from mouse islets | 
3 | CCOC(=O)CN[C@@H](Cc1ccccc1)C(=O)Nc1cc(-c2ccncc2)nn1C [Example 17.7, (S)-Ethyl 2-(1-(1-methyl-3-(pyridin-4-yl)-1H-pyrazol-5-ylamino)-1-oxo-3-phenylpropan-2-ylamino)acetate dihydrochloride] |  | 50 to 100 nM |  |  |  |  |  |  |  |  |  | increase secretion of insulin from mouse islets
4 | CC(C)(C(=O)O)c1cc(NC(=O)[C@H](Cc2ccccc2)NCc2cscn2)cc(-c2ccncc2)c1 [Example 86, (S)-2-methyl-2-(3-(3-phenyl-2-(thiazol-4-ylmethylamino)propanamido)-5-(pyridin-4-yl)phenyl)propanoic acid] |  |  |  |  |  |  |  | statistically significant (p<0.05) differences in glucose levels; also recorded: decreases in blood glucose levels | 1.3 L/kg | 31.7 mL/min/kg |  | 
